Measurements: ChEMBL document CHEMBL1153012, “Synthesis and antibacterial activity of novel 5-(4-methyl-1H-1,2,3-triazole) methyl oxazolidinones” (2009)
Values after ≈ are worked out from the molar mass of the structure shown.

Tests used:
Type in all cases: functional
Staphylococcus aureus [1] = assay: Antibacterial activity against methicillin-susceptible Staphylococcus aureus by agar dilution method
Staphylococcus aureus [2] = assay: Antibacterial activity against methicillin-resistant Staphylococcus aureus by agar dilution method
Staphylococcus aureus [3] = assay: Antibacterial activity against Staphylococcus aureus ATCC 25923 by agar dilution method in presence of human plasma; conditions: ATCC 25923, Plasma
Staphylococcus aureus [4] = assay: Antibacterial activity against Staphylococcus aureus ATCC 25923 by agar dilution method
Haemophilus influenzae [5] = assay: Antibacterial activity against Haemophilus influenzae isolate 280 by agar dilution method
Streptococcus pneumoniae = assay: Antibacterial activity against Streptococcus pneumoniae by agar dilution method
Haemophilus influenzae [6] = assay: Antibacterial activity against Haemophilus influenzae isolate 282 by agar dilution method
Enterococcus [7] = assay: Antibacterial activity against vancomycin-resistant Enterococcus by agar dilution method
Moraxella catarrhalis = assay: Antibacterial activity against Moraxella catarrhalis by agar dilution method
Haemophilus influenzae [8] = assay: Antibacterial activity against Haemophilus influenzae isolate 283 by agar dilution method
Staphylococcus [9] = assay: Antibacterial activity against methicillin resistant coagulase-negative Staphylococcus by agar dilution method
Enterococcus [10] = assay: Antibacterial activity against vancomycin-sensitive Enterococcus by agar dilution method
Haemophilus influenzae [11] = assay: Antibacterial activity against Haemophilus influenzae isolate 285 by agar dilution method
Haemophilus influenzae [12] = assay: Antibacterial activity against Haemophilus influenzae ATCC 49247 by agar dilution method
Staphylococcus [13] = assay: Antibacterial activity against methicillin-sensitive coagulase-negative Staphylococcus by agar dilution method
Escherichia coli = assay: Antibacterial activity against Escherichia coli ATCC 25922 by agar dilution method

| Structure (SMILES) | MIC (Staphylococcus aureus [1]) [µg/mL] | MIC (Staphylococcus aureus [2]) [µg/mL] | MIC (Staphylococcus aureus [3]) [µg/mL] | MIC (Staphylococcus aureus [4]) [µg/mL] | MIC (Haemophilus influenzae [5]) [µg/mL] | MIC (Streptococcus pneumoniae) [µg/mL] | MIC (Haemophilus influenzae [6]) [µg/mL] | MIC (Enterococcus [7]) [µg/mL] | MIC (Moraxella catarrhalis) [µg/mL] | MIC (Haemophilus influenzae [8]) [µg/mL] | MIC (Staphylococcus [9]) [µg/mL] | MIC (Enterococcus [10]) [µg/mL] | MIC (Haemophilus influenzae [11]) [µg/mL] | MIC (Haemophilus influenzae [12]) [µg/mL] | MIC (Staphylococcus [13]) [µg/mL] | MIC (Escherichia coli) [µg/mL] |
| --- | --- | --- | --- | --- | --- | --- | --- | --- | --- | --- | --- | --- | --- | --- | --- | --- |
| CC(=O)N1CCN(c2ccc(N3C[C@H](Cn4cc(C)nn4)OC3=O)cc2F)CC1 | 1 (≈ 2.48 µM) | 1 (≈ 2.48 µM) | 8 | 2 (≈ 4.97 µM) | 64 (≈ 159 µM) | 1 (≈ 2.48 µM) | 64 (≈ 159 µM) | 1 (≈ 2.48 µM) | 8 (≈ 19.9 µM) | 64 (≈ 159 µM) | 1 (≈ 2.48 µM) | 1 (≈ 2.48 µM) | 64 (≈ 159 µM) | 64 (≈ 159 µM) | 1 (≈ 2.48 µM) | > 64 |
| Cc1cn(C[C@H]2CN(c3ccc(N4CCN(C=O)CC4)c(F)c3)C(=O)O2)nn1 | 1 (≈ 2.57 µM) | 1 (≈ 2.57 µM) | 8 | 2 (≈ 5.15 µM) | 64 (≈ 165 µM) | 1 (≈ 2.57 µM) | 64 (≈ 165 µM) | 1 (≈ 2.57 µM) | 8 (≈ 20.6 µM) | 64 (≈ 165 µM) | 1 (≈ 2.57 µM) | 1 (≈ 2.57 µM) | 64 (≈ 165 µM) | 64 (≈ 165 µM) | 1 (≈ 2.57 µM) | > 64 |
| CCCCCCC(=O)N1CCN(c2ccc(N3C[C@H](Cn4cc(C)nn4)OC3=O)cc2F)CC1 | 8 (≈ 16.9 µM) | 8 (≈ 16.9 µM) | > 64 | 8 (≈ 16.9 µM) | > 64 | 8 (≈ 16.9 µM) | > 64 | 4 (≈ 8.46 µM) | 64 (≈ 135 µM) | > 64 | 8 (≈ 16.9 µM) | 4 (≈ 8.46 µM) | > 64 | > 64 | 4 (≈ 8.46 µM) | > 64 |
| CCCCCC(=O)N1CCN(c2ccc(N3C[C@H](Cn4cc(C)nn4)OC3=O)cc2F)CC1 | 2 (≈ 4.36 µM) | 4 (≈ 8.72 µM) | > 64 | 4 (≈ 8.72 µM) | > 64 | 8 (≈ 17.4 µM) | > 64 | 2 (≈ 4.36 µM) | > 64 | > 64 | 2 (≈ 4.36 µM) | 2 (≈ 4.36 µM) | > 64 | > 64 | 2 (≈ 4.36 µM) | > 64 |
| Cc1cn(C[C@H]2CN(c3ccc(N4CCN(C(=O)Cc5ccccc5)CC4)c(F)c3)C(=O)O2)nn1 | 2 (≈ 4.18 µM) | 2 (≈ 4.18 µM) | > 64 | 4 (≈ 8.36 µM) | > 64 | 2 (≈ 4.18 µM) | > 64 | 1 (≈ 2.09 µM) | 16 (≈ 33.4 µM) | > 64 | 2 (≈ 4.18 µM) | 2 (≈ 4.18 µM) | > 64 | > 64 | 2 (≈ 4.18 µM) | > 64 |
| Cc1cn(C[C@H]2CN(c3ccc(N4CCN(C(=O)C5CCCC5)CC4)c(F)c3)C(=O)O2)nn1 | 2 (≈ 4.38 µM) | 2 (≈ 4.38 µM) | 32 | 4 (≈ 8.76 µM) | 32 (≈ 70.1 µM) | 4 (≈ 8.76 µM) | 32 (≈ 70.1 µM) | 2 (≈ 4.38 µM) | 32 (≈ 70.1 µM) | 32 (≈ 70.1 µM) | 2 (≈ 4.38 µM) | 2 (≈ 4.38 µM) | 32 (≈ 70.1 µM) | 32 (≈ 70.1 µM) | 2 (≈ 4.38 µM) | > 64 |
| CCC(=O)N1CCN(c2ccc(N3C[C@H](Cn4cc(C)nn4)OC3=O)cc2F)CC1 | 1 (≈ 2.4 µM) | 1 (≈ 2.4 µM) | 8 | 2 (≈ 4.8 µM) | 32 (≈ 76.8 µM) | 1 (≈ 2.4 µM) | 32 (≈ 76.8 µM) | 1 (≈ 2.4 µM) | 16 (≈ 38.4 µM) | 32 (≈ 76.8 µM) | 1 (≈ 2.4 µM) | 1 (≈ 2.4 µM) | 32 (≈ 76.8 µM) | 32 (≈ 76.8 µM) | 1 (≈ 2.4 µM) | > 64 |
| CCSC(=O)N1CCN(c2ccc(N3C[C@H](Cn4cc(C)nn4)OC3=O)cc2F)CC1 | 1 (≈ 2.23 µM) | 1 (≈ 2.23 µM) | 64 | 2 (≈ 4.46 µM) | > 64 | 2 (≈ 4.46 µM) | > 64 | 1 (≈ 2.23 µM) | 16 (≈ 35.7 µM) | > 64 | 1 (≈ 2.23 µM) | 1 (≈ 2.23 µM) | > 64 | > 64 | 1 (≈ 2.23 µM) | > 64 |
| Cc1cn(C[C@H]2CN(c3ccc(N4CCNCC4)c(F)c3)C(=O)O2)nn1.O=C(O)C(F)(F)F | 4 | 4 | 32 | 4 | 32 | 2 | 32 | 8 | 16 | 32 | 4 | 4 | 32 | 32 | 4 | > 64 |
| Cc1cn(C[C@H]2CN(c3ccc(N4CCN(C(=O)CC5CC6CCC5C6)CC4)c(F)c3)C(=O)O2)nn1 (stereo not given in full) | 2 (≈ 4.03 µM) | 4 (≈ 8.05 µM) | > 64 | 4 (≈ 8.05 µM) | > 64 | 16 (≈ 32.2 µM) | > 64 | 2 (≈ 4.03 µM) | 64 (≈ 129 µM) | > 64 | 2 (≈ 4.03 µM) | 2 (≈ 4.03 µM) | > 64 | > 64 | 2 (≈ 4.03 µM) | > 64 |
